The values that follow come from US8063093B2, “Potassium channel blockers and uses thereof” (priority 2005, dated 2011).

Data set [1] deals with peripheral blood mononuclear cells. In words: [3H]-thymidine incorporation (proliferation), anti-CD3 stimulated. The data set is classed as cell-based. The note with it: Homo sapiens, PBMC; Table 9; 5 ng/ml anti-CD3 Ab for 48 h. The text has this: [^3H]-thymidine incorporation is a widely used test to assay the proliferative activity of human and rodent lymphocytes. As cells divide [^3H]-thymidine will be incorporated into the newly synthesised DNA of the resulting daughter cells. The faster cells grow the more radioactive [^3H]-thymidine will be incorporated. Any compound that inhibits lymphocytes proliferation will reduce the uptake of radioactivity by the cells treated with it compared to the untreated controls.
The selected compounds were tested to determine its ability to inhibit [^3H]-thymidine incorporation and the results are set out in table 6 below. Resting peripheral blood mononuclear cells from healthy volunteers were seeded at 2×10^5 cells per well in medium (RPMI 1640 supplemented 10% fetal calf serum, 2 mM glutamine, 1 mM sodium pyruvate, 1% nonessential amino acids, 100 units/ml penicillin, 100 μg/ml streptomycin and 50 μM β-mercaptoethanol) in flat-bottom 96 well plates (final volume 200 μl). Cells were pre-incubated with the compound of example 2 for 60 min, and were stimulated with 5 ng/ml anti-CD3 Ab for 48 h. [^3H]-Thymidine (1 μCi per well) was added for the last 6 h. Cells were harvested onto glass fibre filters and radioactivity measured in a scintillation counter. All experiments were done in triplicate. Results are normalised for maximum [^3H]-thymidine incorporation by control.
(Incorporation of labelled thymidine or its analogues reports DNA synthesis.)

Data set [2] addresses Kv1.3 (Homo sapiens, UniProt P22001). The note with it: cited from earlier work.

Each structure is given as a SMILES string. Read-outs that look alike come from different tables or passages of the source.

Sequence of Kv1.3 (P22001 whole entry): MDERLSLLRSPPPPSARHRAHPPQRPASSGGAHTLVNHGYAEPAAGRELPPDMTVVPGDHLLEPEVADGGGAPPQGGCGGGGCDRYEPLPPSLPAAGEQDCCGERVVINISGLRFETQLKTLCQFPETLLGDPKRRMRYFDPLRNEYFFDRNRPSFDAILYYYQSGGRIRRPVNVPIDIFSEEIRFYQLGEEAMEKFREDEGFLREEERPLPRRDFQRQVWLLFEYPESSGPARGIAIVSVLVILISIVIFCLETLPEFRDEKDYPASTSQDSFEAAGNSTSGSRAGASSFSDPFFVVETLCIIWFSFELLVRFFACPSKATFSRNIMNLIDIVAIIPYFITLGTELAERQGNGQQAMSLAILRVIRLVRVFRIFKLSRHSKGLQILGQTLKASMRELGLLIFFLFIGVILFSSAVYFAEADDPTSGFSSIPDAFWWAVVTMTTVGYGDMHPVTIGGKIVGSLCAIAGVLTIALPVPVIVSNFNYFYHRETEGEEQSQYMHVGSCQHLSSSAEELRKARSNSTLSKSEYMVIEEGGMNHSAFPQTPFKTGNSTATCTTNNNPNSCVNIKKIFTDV

Consider `COc1c(O)c(C(C)=O)c(OCc2ccccc2-c2ccccc2)c2ccoc12` [Compound 14], for which the melting point (as a rule, the temperature, or range, at which the solid turns liquid) is 126 to 127 °C.

Consider `COc1c(O)c(C(C)=O)c(OCCCCCCOc2c(C(C)=O)c(O)c(OC)c3occc23)c2ccoc12` [Compound 86], for which the melting point fell in the range of 147 to 151 °C.

`COc1c(C(C)=O)c(O)c(OCc2cccc([N+](=O)[O-])c2)c2occc12` [Compound 52] displayed a melting point of 157 to 159 °C.

As for `COc1c(O)c(C(C)=O)c(OCCCc2ccccc2)c2ccoc12` [Compound 8], the melting point lay within 94 to 95 °C.

`COc1c(C(C)=O)c(O)c(OCc2ccc(C(F)(F)F)cc2)c2occc12` [Compound 56] gave a melting point of 90 to 91 °C.

For the compound `COc1c(C(C)=O)c(O)c(OCc2ccc(COc3c(O)c(C(C)=O)c(OC)c4ccoc34)cc2)c2occc12` [Compound 95], the melting point was 184 to 186 °C.

The compound `COc1c(C(C)=O)c(O)c(OCCCCCOc2c(O)c(C(C)=O)c(OC)c3ccoc23)c2occc12` [Compound 91] had a melting point of 132 to 134 °C.

The compound `COc1c(C(C)=O)c(O)c(OCCCCCCOc2c(O)c(C(C)=O)c(OC)c3ccoc23)c2occc12` [Compound 92] had a melting point of 109 to 111 °C.

The compound `COc1c(O)c(C(C)=O)c(OCCCCc2ccccc2)c2ccoc12` [Compound 9] returned a melting point of 121 to 122 °C.

In turn, `COc1c(C(C)=O)c(O)c(OCCCc2ccccc2)c2occc12` [Compound 41] displayed a melting point of 36 °C. The 50% effective concentration (EC50) (commonly the concentration at which the effect is half-maximal) in data set [1] turned out to be 1000 nM.

Compound `COc1c(C(C)=O)c(O)c(OCc2ccccc2C)c2occc12` [Compound 46] returned a melting point of 86 to 88 °C.

As for `COc1c(C(C)=O)c(O)c(OCc2ccccc2F)c2occc12` [Compound 44], the melting point was 89 to 92 °C.

In turn, `COc1c(C(C)=O)c(O)c(OCc2ccc(Cl)cc2)c2occc12` [Compound 54] had a melting point of 110 °C.

Regarding `COc1c(C(C)=O)c(O)c(OCc2cccc(COc3c(O)c(C(C)=O)c(OC)c4ccoc34)c2)c2occc12` [Compound 94], the melting point was in the range of 125 to 128 °C.

On to `COc1c(C(C)=O)c(O)c(OCc2ccc(-c3ccccc3)cc2)c2occc12` [Compound 59], for which the melting point fell in the range of 126 to 127 °C.

As to `CC(=O)c1c(O)c(OCc2ccccc2)c2occc2c1OCc1ccccc1` [Compound 82], the melting point lay within 74 to 76 °C.

For `COc1c(C(C)=O)c(O)c(OC)c2occc12` [Khellinone], the “blocking activity on the Kv1.3 channel” value in data set [2] is on record as “exhibit blocking activity”.

The compound `COc1c(C(C)=O)c(O)c(OCc2cccc(F)c2)c2occc12` [Compound 48] displayed a melting point of 89 to 91 °C.

On to `COc1c(C(C)=O)c(O)c(OCCCCc2ccccc2)c2occc12` [Compound 42], for which the melting point is 28 °C.

`COc1c(O)c(C(C)=O)c(OCc2ccc(C(C)C)cc2)c2ccoc12` [Compound 25] gave a melting point of 73 to 75 °C.

`COc1c(C(C)=O)c(O)c(OCc2ccc(C(C)(C)C)cc2)c2occc12` [Compound 58] had a melting point of 117 to 118 °C.

In turn, `COc1c(O)c(C(C)=O)c(OCc2cccc(C)c2)c2ccoc12` [Compound 17] gave a melting point of 99 to 101 °C.

Consider `COc1c(C(C)=O)c(O)c(OCc2ccc(C(=O)O)cc2)c2occc12` [Compound 63], for which the melting point lay in the range of 208 to 209 °C.

`COc1c(O)c(C(C)=O)c(OCc2ccc(F)cc2)c2ccoc12` [Compound 21]: the melting point is 100 to 102 °C.

Compound `COc1c(O)c(C(C)=O)c(OCc2ccccc2C)c2ccoc12` [Compound 13] registered a melting point of 101 to 103 °C.

Compound `COc1c(C(C)=O)c(O)c(OCc2ccc(OCc3ccccc3)cc2)c2occc12` [Compound 61] came in with a melting point of 118 to 120 °C.

`COc1c(C(C)=O)c(O)c(OCCc2ccccc2)c2occc12` [Compound 40] returned a melting point of 102 to 104 °C.

For the compound `COc1c(C(C)=O)c(O)c(OCc2ccc(F)cc2)c2occc12` [Compound 53], the melting point was in the range of 99 to 100 °C.

Take `COc1c2occc2c(OCCCCc2ccccc2)c2c(=O)cc(C)oc12` [Compound 99]: the melting point lay within 121 to 122 °C.

The compound `COc1c(O)c(C(C)=O)c(OCCCCOc2c(C(C)=O)c(O)c(OC)c3occc23)c2ccoc12` [Compound 84] yielded a melting point of 209 to 211 °C.

In turn, `COc1c(O)c(C(C)=O)c(OCCCCCOc2c(C(C)=O)c(O)c(OC)c3occc23)c2ccoc12` [Compound 85] had a melting point of 139 to 141 °C.

Turning to `COc1c(O)c(C(C)=O)c(OCc2ccc(-c3ccccc3)cc2)c2ccoc12` [Compound 27], the melting point was in the range of 163 to 167 °C.

With `COc1c(C(C)=O)c(O)c(OCc2cccc(Cl)c2)c2occc12` [Compound 49], the melting point lay in the range of 105 to 108 °C.

For `COc1c(O)c(C(C)=O)c(OCc2cccc3ccccc23)c2ccoc12` [Compound 4], the melting point is 96 to 98 °C.

Regarding `COc1c(O)c(C(C)=O)c(OCc2cccc([N+](=O)[O-])c2)c2ccoc12` [Compound 20], the melting point lay in the range of 160 to 162 °C.

The compound `COc1c(C(C)=O)c(O)c(OCc2ccccc2)c2occc12` [Compound 39] returned a melting point of 79 to 80 °C.

For the compound `COc1c(O)c(C(C)=O)c(OCCCCCCCOc2c(C(C)=O)c(O)c(OC)c3occc23)c2ccoc12` [Compound 87], the melting point fell in the range of 122 to 125 °C.

Compound `COc1c(O)c(C(C)=O)c(OCc2cccc(OC(F)(F)F)c2)c2ccoc12` [Compound 19] had a melting point of 86 to 88 °C.

In turn, `COc1c(O)c(C(C)=O)c(OCc2ccc(OCc3ccccc3)cc2)c2ccoc12` [Compound 30] came in with a melting point of 155 to 157 °C.

Take `COc1c(O)c(C(C)=O)c(OCc2cccc(Cl)c2)c2ccoc12` [Compound 16]: the melting point is 108 to 111 °C.

For the compound `COc1c(C(C)=O)c(O)c(OCc2ccccc2-c2ccccc2)c2occc12` [Compound 47], the melting point lay within 115 to 117 °C.

`COc1c(O)c(C(C)=O)c(OCc2ccc(OC(F)(F)F)cc2)c2ccoc12` [Compound 29] returned a melting point of 130 to 131 °C.

As to `COc1c(O)c(C(C)=O)c(OCc2ccccc2F)c2ccoc12` [Compound 11], the melting point fell in the range of 105 to 108 °C.

Take `COc1c(C(C)=O)c(O)c(OCCCCCc2ccccc2)c2occc12` [Compound 43]: the melting point lay within 31 to 32 °C.

For the compound `COc1c(O)c(C(C)=O)c(OCc2ccc(C(=O)c3ccccc3)cc2)c2ccoc12` [Compound 31], the melting point lay within 132 to 134 °C.

In turn, `COc1c(C(C)=O)c(O)c(OCc2ccc3ccccc3c2)c2occc12` [Compound 38] had a melting point of 114 to 115 °C.

As for `COc1c(O)c(C(C)=O)c(OCc2ccc(C(=O)O)cc2)c2ccoc12` [Compound 32], the melting point lay within 183 to 186 °C.

In the case of `COc1c(O)c(C(C)=O)c(OCc2ccc(Cl)cc2)c2ccoc12` [Compound 22], the melting point was in the range of 106 to 108 °C. The same compound showed an EC50 in data set [1] of 2500 nM.

`COc1c(O)c(C(C)=O)c(OCc2cccc(F)c2)c2ccoc12` [Compound 15] came in with a melting point of 118 to 121 °C.

In turn, `COc1c(C(C)=O)c(O)c(OCc2ccc(C(C)C)cc2)c2occc12` [Compound 57] gave a melting point of 80 to 83 °C.

`COc1c(O)c(C(C)=O)c(OCc2ccccc2Cl)c2ccoc12` [Compound 12] showed a melting point of 84 to 86 °C.

`COc1c(O)c(C(C)=O)c(OCc2ccc(C(C)(C)C)cc2)c2ccoc12` [Compound 26] returned a melting point of 82 to 87 °C.

In turn, `COc1c(C(C)=O)c(O)c(OCc2cccc(C)c2)c2occc12` [Compound 50] displayed a melting point of 81 to 82 °C.

Consider `COc1c2occc2cc2ccc(=O)oc12` [Compound 8-MOP, 8-Methoxypsoralen], for which the “blocking activity on the Kv1.3 channel” value in data set [2] (result in words) is on record as “exhibit blocking activity”.

For the compound `COc1c(O)c(C(C)=O)c(OCc2ccc(COc3c(C(C)=O)c(O)c(OC)c4occc34)cc2)c2ccoc12` [Compound 89], the melting point fell in the range of 201 to 203 °C.

Turning to `COc1c(C(C)=O)c(O)c(OCc2ccc(Br)cc2)c2occc12` [Compound 55], the melting point lay within 106 to 107 °C. For the same compound, a half-maximal effect in data set [1] (EC50) was put at 2500 nM.

For `COc1c(O)c(C(C)=O)c(OCc2cccc(COc3c(C(C)=O)c(O)c(OC)c4occc34)c2)c2ccoc12` [Compound 88], the melting point lay in the range of 184 to 186 °C.

In turn, `COc1c(C(C)=O)c(O)c(OCc2ccccc2Cl)c2occc12` [Compound 45] registered a melting point of 104 to 107 °C.

`COc1c(O)c(C(C)=O)c(OCc2ccccc2)c2ccoc12` [Compound 6] gave a melting point of 93 to 94 °C.

`COc1c(O)c(C(C)=O)c(OCc2ccc(C(F)(F)F)cc2)c2ccoc12` [Compound 24] showed a melting point of 104 to 106 °C.
